{
  "source": "paper PMC10770036",
  "about": "“Novel dual inhibitors of PARP and HDAC induce intratumoral STING-mediated antitumor immunity in triple-negative breast cancer” (Cell Death & Disease, 2024)",
  "system": "4T1 tumors",
  "test": "Combination with anti-PD-L1 in syngeneic murine 4T1 model",
  "format": "in vivo, mice",
  "conditions": "syngeneic 4T1 model; B102 15 mg/kg or B302 50 mg/kg every 2 days; anti-PD-L1 100 μg every 5 days; intraperitoneal",
  "from_the_text": "MDA-MB-436 cells (5 × 10^6) were suspended in PBS and Matrigel (Corning) at a 1:1 ratio and orthotopically injected into the fat pads of 6- to 7-week-old female NOD-Prkdc^scid Il2rg^em1Smoc (M-NSG) mice from the Shanghai Model Organisms Center, Inc. MDA-MB-231 cells (5 × 10^6) were suspended in PBS orthotopically injected into the fat pads of 6- to 7-week-old female BALB/c nude mice from the Shanghai Model Organisms Center, Inc. 4T1 cells (1 × 10^6) were suspended in PBS and injected into the fat pads of 6- to 7-week-old male BALB/c mice from GemPharmatech Co., Ltd. […] For the MMTV-PyMT mice, fourteen 6-week-old female mice were randomly divided into two groups, and no blinding was performed. […] For the combination of B102 or B302 and anti-PD-L1 studies, the mice were randomly divided into four treatment groups without blinding: (1) vehicle; (2) B102 (15 mg/kg, every 2 days) or B302 (50 mg/kg, every 2 days); (3) anti-PD-L1 antibodies (100 μg, dissolved in PBS, every 5 days, Atezolizumab, Clone No.: 2B11D11, Shanghai Lollane biological technology Co., Ltd., Shanghai, China); or (4) combination of B102 or B302 and anti-PD-L1, all treatment via an intraperitoneal injection. Tumor size was monitored with a digital caliper, and tumor volume was calculated using the following equation: volume = (length × width^2)/2. […]",
  "data": [
    {"substance": "anti-PD-L1: anti-PD-L1 antibodies (Atezolizumab, Clone No.: 2B11D11), immune checkpoint blockade", "values": [
      {"measurement": "tumor growth", "result": "restricted tumor growth"}
    ]}
  ]
}
